ChEMBL document CHEMBL1201862, “PubChem BioAssay data set” (2004)
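Step 1: Grow cells in 96-well plates. Step 2: Expose to compound for 48 hours at 5 concentrations. Step 3: Interpolate endpoints linearly; if unreached, use highest concentration. Abbreviation: GI50, concentration required for 50% inhibition of growth.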 Activity calls are given as the source filed them. Rule as the data show it: active = GI50 up to about 1.1 µM and inactive = higher.

How the values were obtained:
Assay in all cases: growth of human tumour cells (NCI), 48 h
DU-145 = system: DU-145
SF-295 = system: SF-295
MDA-MB-435 = system: MDA-MB-435
MDA-MB-231 = system: MDA-MB-231
HOP-92 = system: HOP-92
Malme-3M = system: Malme-3M
T47D = system: T47D
SNB-75 = system: SNB-75
SF-268 = system: SF-268
UACC-62 = system: UACC-62
SK-OV-3 = system: SK-OV-3
PC-3 = system: PC-3
OVCAR-3 = system: OVCAR-3
SK-MEL-28 = system: SK-MEL-28
M14 = system: M14
EKVX = system: EKVX
RXF 393 = system: RXF 393
A549 = system: A549
RPMI-8226 = system: RPMI-8226
HL-60 = system: HL-60
K562 = system: K562
HOP-62 = system: HOP-62
KM12 = system: KM12
CCRF-CEM = system: CCRF-CEM
NCI-H226 = system: NCI-H226
CAKI-1 = system: CAKI-1
NCI/ADR-RES = system: NCI/ADR-RES
MDA-N = system: MDA-N
TK-10 = system: TK-10
SK-MEL-2 = system: SK-MEL-2
MOLT-4 = system: MOLT-4
SNB-19 = system: SNB-19
A498 = system: A498
OVCAR-4 = system: OVCAR-4
ACHN = system: ACHN
SN12C = system: SN12C
HT-29 = system: HT-29
BT-549 = system: BT-549
OVCAR-8 = system: OVCAR-8
IGROV-1 = system: IGROV-1
NCI-H460 = system: NCI-H460
HCT-116 = system: HCT-116
HCC 2998 = system: HCC 2998
786-0 = system: 786-0
Hs-578T = system: Hs-578T
UO-31 = system: UO-31
MCF7 = system: MCF7
U-251 = system: U-251
SF-539 = system: SF-539
SK-MEL-5 = system: SK-MEL-5
LOX IMVI = system: LOX IMVI
HCT-15 = system: HCT-15
OVCAR-5 = system: OVCAR-5
SW-620 = system: SW-620
NCI-H522 = system: NCI-H522
NCI-H23 = system: NCI-H23
UACC-257 = system: UACC-257
COLO 205 = system: COLO 205
SR = system: SR

O=C(/C=C1\C[C@H]2C=Nc3ccccc3C(=O)N2C1)NCCCCNC(=O)/C=C1\C[C@H]2C=Nc3ccccc3C(=O)N2C1
GI50 (DU-145): 15.2 µM (inactive)
GI50 (SF-295): 19.5 µM (inactive)
GI50 (MDA-MB-435): 7.4 µM (inactive)
GI50 (MDA-MB-231): 0.494 µM (active)
GI50 (HOP-92): 7.93 µM (inactive)
GI50 (Malme-3M): 6.81 µM (inactive)
GI50 (T47D): 4.39 µM (inactive)
GI50 (SNB-75): 16.3 µM (inactive)
GI50 (SF-268): 9.95 µM (inactive)
GI50 (UACC-62): 15.3 µM (inactive)
GI50 (SK-OV-3): 18.3 µM (inactive)
GI50 (PC-3): 14.4 µM (inactive)
GI50 (OVCAR-3): 7.82 µM (inactive)
GI50 (SK-MEL-28): 15.8 µM (inactive)
GI50 (M14): 6.12 µM (inactive)
GI50 (EKVX): 16.7 µM (inactive)
GI50 (RXF 393): 6.15 µM (inactive)
GI50 (A549): 20.7 µM (inactive)
GI50 (RPMI-8226): 4.24 µM (inactive)
GI50 (HL-60): 3.3 µM (inactive)
GI50 (K562): 3.11 µM (inactive)
GI50 (HOP-62): 17.2 µM (inactive)
GI50 (KM12): 17.5 µM (inactive)
GI50 (CCRF-CEM): 1.39 µM (inactive)
GI50 (NCI-H226): 13.8 µM (inactive)
GI50 (CAKI-1): 2.77 µM (inactive)
GI50 (NCI/ADR-RES): 22.3 µM (inactive)
GI50 (MDA-N): 11 µM (inactive)
GI50 (TK-10): 10.4 µM (inactive)
GI50 (SK-MEL-2): 15.2 µM (inactive)
GI50 (MOLT-4): 2.91 µM (inactive)
GI50 (SNB-19): 16.6 µM (inactive)
GI50 (A498): 18.7 µM (inactive)
GI50 (OVCAR-4): 8.99 µM (inactive)
GI50 (ACHN): 3.61 µM (inactive)
GI50 (SN12C): 5.05 µM (inactive)
GI50 (HT-29): 14.2 µM (inactive)
GI50 (BT-549): 12.9 µM (inactive)
GI50 (OVCAR-8): 4.93 µM (inactive)
GI50 (IGROV-1): 14.5 µM (inactive)
GI50 (NCI-H460): 17.7 µM (inactive)
GI50 (HCT-116): 12.3 µM (inactive)
GI50 (HCC 2998): 18 µM (inactive)
GI50 (786-0): 1.75 µM (inactive)
GI50 (Hs-578T): 29.4 µM (inactive)
GI50 (UO-31): 2.39 µM (inactive)
GI50 (MCF7): 12.4 µM (inactive)
GI50 (U-251): 3.37 µM (inactive)
GI50 (SF-539): 14.9 µM (inactive)
GI50 (SK-MEL-5): 12.8 µM (inactive)
GI50 (LOX IMVI): 1.97 µM (inactive)
GI50 (HCT-15): 8.89 µM
GI50 (OVCAR-5): 19.2 µM (inactive)
GI50 (SW-620): 2.55 µM (inactive)
GI50 (NCI-H522): 1.4 µM (inactive)
GI50 (NCI-H23): 11.3 µM (inactive)
GI50 (UACC-257): 10.3 µM (inactive)
GI50 (COLO 205): 4.21 µM (inactive)

O=C(O)CSc1n[nH]c(=O)[nH]c1=O
GI50 (DU-145): > 100 µM (inactive)
GI50 (SF-295): > 100 µM (inactive)
GI50 (MDA-MB-435): > 100 µM (inactive)
GI50 (MDA-MB-231): > 100 µM (inactive)
GI50 (Malme-3M): > 100 µM (inactive)
GI50 (T47D): > 100 µM (inactive)
GI50 (SNB-75): > 100 µM (inactive)
GI50 (SF-268): > 100 µM (inactive)
GI50 (UACC-62): > 100 µM (inactive)
GI50 (SK-OV-3): > 100 µM (inactive)
GI50 (PC-3): > 100 µM (inactive)
GI50 (OVCAR-3): 74.8 µM (inactive)
GI50 (SK-MEL-28): > 100 µM (inactive)
GI50 (M14): > 100 µM (inactive)
GI50 (SR): > 100 µM (inactive)
GI50 (EKVX): > 100 µM (inactive)
GI50 (RXF 393): > 100 µM (inactive)
GI50 (A549): > 100 µM (inactive)
GI50 (RPMI-8226): > 100 µM (inactive)
GI50 (HL-60): > 100 µM (inactive)
GI50 (K562): > 100 µM (inactive)
GI50 (HOP-62): > 100 µM (inactive)
GI50 (KM12): > 100 µM (inactive)
GI50 (CCRF-CEM): > 100 µM (inactive)
GI50 (NCI-H226): > 100 µM (inactive)
GI50 (CAKI-1): > 100 µM (inactive)
GI50 (NCI/ADR-RES): > 100 µM (inactive)
GI50 (MDA-N): > 100 µM (inactive)
GI50 (SK-MEL-2): > 100 µM (inactive)
GI50 (MOLT-4): > 100 µM (inactive)
GI50 (SNB-19): > 100 µM (inactive)
GI50 (A498): > 100 µM (inactive)
GI50 (OVCAR-4): > 100 µM (inactive)
GI50 (ACHN): > 100 µM (inactive)
GI50 (SN12C): > 100 µM (inactive)
GI50 (HT-29): > 100 µM (inactive)
GI50 (BT-549): > 100 µM (inactive)
GI50 (OVCAR-8): > 100 µM (inactive)
GI50 (IGROV-1): > 100 µM (inactive)
GI50 (NCI-H460): > 100 µM (inactive)
GI50 (HCT-116): > 100 µM (inactive)
GI50 (786-0): > 100 µM (inactive)
GI50 (Hs-578T): > 100 µM (inactive)
GI50 (UO-31): > 100 µM (inactive)
GI50 (MCF7): > 100 µM (inactive)
GI50 (U-251): > 100 µM (inactive)
GI50 (SF-539): > 100 µM (inactive)
GI50 (SK-MEL-5): > 100 µM (inactive)
GI50 (LOX IMVI): > 100 µM (inactive)
GI50 (HCT-15): > 100 µM
GI50 (OVCAR-5): > 100 µM (inactive)
GI50 (SW-620): > 100 µM (inactive)
GI50 (NCI-H522): > 100 µM (inactive)
GI50 (NCI-H23): > 100 µM (inactive)
GI50 (COLO 205): > 100 µM (inactive)
